Data on one compound can be found in patent publication US9623028B2, “Methods of treating a cancer using substituted pyrrolopyrimidine compounds, compositions thereof” (Signal Pharmaceuticals, LLC, priority 2014, dated 2017).

The target of assay [1] is T1, CLK2 (Homo sapiens (Human), UniProt P49760). The assay can be described thus: biochemical. The note with it: read-out: CLK2 (% Inh.), % inhibition at 3 μM.
Assay [2] has as its target T1, CLK2. The note with it: read-out: CLK2 (IC50).
Assay [3] deals with T2, CLK1 (Homo sapiens (Human), UniProt P49759). The note with it: read-out: CLK1 (IC50).
Assay [4] deals with T2, CLK1. The assay can be described thus: biochemical. The note with it: read-out: CLK1 (% Inh.), % inhibition at 3 μM.

T2 sequence (P49759 whole entry): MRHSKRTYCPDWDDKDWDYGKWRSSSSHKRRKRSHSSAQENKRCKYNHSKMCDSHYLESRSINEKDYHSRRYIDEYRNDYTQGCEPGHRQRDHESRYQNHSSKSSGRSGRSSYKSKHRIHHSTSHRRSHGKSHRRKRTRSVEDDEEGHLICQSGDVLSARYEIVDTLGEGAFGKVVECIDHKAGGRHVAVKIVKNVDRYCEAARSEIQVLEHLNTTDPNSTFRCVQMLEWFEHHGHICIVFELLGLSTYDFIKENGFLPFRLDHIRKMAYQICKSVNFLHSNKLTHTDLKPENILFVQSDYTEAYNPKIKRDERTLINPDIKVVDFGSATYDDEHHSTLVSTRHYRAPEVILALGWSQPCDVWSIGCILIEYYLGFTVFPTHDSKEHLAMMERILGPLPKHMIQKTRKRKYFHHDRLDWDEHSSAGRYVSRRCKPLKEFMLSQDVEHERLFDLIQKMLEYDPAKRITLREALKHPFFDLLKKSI
T1 sequence (P49760 whole entry): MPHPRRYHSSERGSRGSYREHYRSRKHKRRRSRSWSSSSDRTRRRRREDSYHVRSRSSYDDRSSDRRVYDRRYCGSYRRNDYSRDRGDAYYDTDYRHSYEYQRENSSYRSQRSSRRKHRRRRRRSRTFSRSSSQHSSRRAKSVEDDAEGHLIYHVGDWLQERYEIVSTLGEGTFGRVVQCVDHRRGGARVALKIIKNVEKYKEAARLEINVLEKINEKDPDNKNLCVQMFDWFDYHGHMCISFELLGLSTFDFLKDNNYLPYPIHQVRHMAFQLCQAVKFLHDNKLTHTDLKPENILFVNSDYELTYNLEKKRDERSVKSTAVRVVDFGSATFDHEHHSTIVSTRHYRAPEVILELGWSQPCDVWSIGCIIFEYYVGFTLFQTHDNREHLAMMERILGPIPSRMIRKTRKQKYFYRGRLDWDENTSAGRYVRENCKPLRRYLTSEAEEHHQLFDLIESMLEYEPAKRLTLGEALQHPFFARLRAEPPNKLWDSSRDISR

One may read the inhibition as the relative decrease from the control value, in per cent. The IC50 is the midpoint of a concentration-inhibition curve. In the case of `CNC(=O)c1ccc(-c2c[nH]c3nc(Nc4ccc(C(=O)NC5CN(C)C5)cc4OC)nc(OC4CCC(C)(O)CC4)c23)cc1` (stereo not shown) [Compound 349, 4-(4-((1s,4s)-4-hydroxy-4-methylcyclohexyloxy)-5-(4-(methylcarbamoyl)phenyl)-7H-pyrrolo[2,3-d]pyrimidin-2-ylamino)-3-methoxy-N-(1-methylazetidin-3-yl)benzamide], the inhibition at 3 µM at CLK2 [1] amounted to 102%; on CLK1 [4], 101%. The half-inhibitory concentration (IC50) at CLK2 [2] came out at 1.43 nM; at CLK1 [3] it was 59.3 nM.
